# Tests used:
# [1] = tested on: anti-Aβ antibodies in macaque antisera; experiment: Specificity analysis (10-mer peptide ELISA) of antisera from Cynomolgus macaques; type: binding
# [2] = tested on: anti-Aβ antibodies in sera of vaccinated patients; experiment: Epitope mapping, competitive binding inhibition EIA with patient sera (10-mer peptides, IC50); set-up: species or system human; Epitope mapping, fine specificity analysis, serum of subject P210: unit not given here; conditions: for Epitope mapping, fine specificity analysis, serum of subject P101: serum 16 wpi of vaccinated patient P101; for Epitope mapping, fine specificity analysis, serum of subject P102: serum 16 wpi of vaccinated patient P102; for Epitope mapping, fine specificity analysis, serum of subject P103: serum 16 wpi of vaccinated patient P103; for Epitope mapping, fine specificity analysis, serum of subject P104: serum 16 wpi of vaccinated patient P104; for Epitope mapping, fine specificity analysis, serum of subject P105: serum 16 wpi of vaccinated patient P105; for Epitope mapping, fine specificity analysis, serum of subject P106: serum 16 wpi of vaccinated patient P106; for Epitope mapping, fine specificity analysis, serum of subject P107: serum 16 wpi of vaccinated patient P107; for Epitope mapping, fine specificity analysis, serum of subject P108: serum 16 wpi of vaccinated patient P108; for Epitope mapping, fine specificity analysis, serum of subject P109: serum 16 wpi of vaccinated patient P109; for Epitope mapping, fine specificity analysis, serum of subject P201: serum 16 wpi of vaccinated patient P201; for Epitope mapping, fine specificity analysis, serum of subject P202: serum 16 wpi of vaccinated patient P202; for Epitope mapping, fine specificity analysis, serum of subject P203: serum 16 wpi of vaccinated patient P203; for Epitope mapping, fine specificity analysis, serum of subject P204: serum 16 wpi of vaccinated patient P204; for Epitope mapping, fine specificity analysis, serum of subject P205: serum 16 wpi of vaccinated patient P205; for Epitope mapping, fine specificity analysis, serum of subject P206: serum 16 wpi of vaccinated patient P206; for Epitope mapping, fine specificity analysis, serum of subject P207: serum 16 wpi of vaccinated patient P207; for Epitope mapping, fine specificity analysis, serum of subject P208: serum 16 wpi of vaccinated patient P208; for Epitope mapping, fine specificity analysis, serum of subject P209: serum 16 wpi of vaccinated patient P209; for Epitope mapping, fine specificity analysis, serum of subject P210: serum 16 wpi of vaccinated patient P210
# [3] = antisera of macaques given UBI AD Vaccine 150 μg/dose, 9 WPI
# [4] = antisera of macaques given UBI AD Vaccine 150 μg/dose, 15 WPI
# [5] = antisera of macaques given UBI AD Vaccine 750 μg/dose, 9 WPI
# [6] = antisera of macaques given UBI AD Vaccine 750 μg/dose, 15 WPI
Substance,"Reactivity of antisera with peptide (specificity analysis ELISA) [1, 3]","Reactivity of antisera with peptide (specificity analysis ELISA) [1, 4]","Reactivity of antisera with peptide (specificity analysis ELISA) [1, 5]","Reactivity of antisera with peptide (specificity analysis ELISA) [1, 6]","Epitope mapping, fine specificity analysis, serum of subject P101 [2]","Epitope mapping, fine specificity analysis, serum of subject P102 [2]","Epitope mapping, fine specificity analysis, serum of subject P103 [2]","Epitope mapping, fine specificity analysis, serum of subject P104 [2]","Epitope mapping, fine specificity analysis, serum of subject P105 [2]","Epitope mapping, fine specificity analysis, serum of subject P106 [2]","Epitope mapping, fine specificity analysis, serum of subject P107 [2]","Epitope mapping, fine specificity analysis, serum of subject P108 [2]","Epitope mapping, fine specificity analysis, serum of subject P109 [2]","Epitope mapping, fine specificity analysis, serum of subject P201 [2]","Epitope mapping, fine specificity analysis, serum of subject P202 [2]","Epitope mapping, fine specificity analysis, serum of subject P203 [2]","Epitope mapping, fine specificity analysis, serum of subject P204 [2]","Epitope mapping, fine specificity analysis, serum of subject P205 [2]","Epitope mapping, fine specificity analysis, serum of subject P206 [2]","Epitope mapping, fine specificity analysis, serum of subject P207 [2]",other results
8 (TEEISEVKMD; PEPTIDE (1)..(10) Abeta -9-1 or APP 770(T663-D672); listed as Homo sapiens) [compound 8],0.075,0.084,0.061,0.078,0,0,0,0,0,0,0,0,0,0,0,0,0,0,0,0,"Epitope mapping, fine specificity analysis, serum of subject P208 [2]: 0; Epitope mapping, fine specificity analysis, serum of subject P209 [2]: 0; Epitope mapping, fine specificity analysis, serum of subject P210 [2]: 0"
9 (EEISEVKMDA; PEPTIDE (1)..(10) Abeta -8-2 or APP 770(E664-A673); listed as Homo sapiens) [compound 9],0.082,0.092,0.081,0.076,0,0,0,0,0,0,0,0,0,0,0,0,0,0,0,0,"Epitope mapping, fine specificity analysis, serum of subject P208 [2]: 0; Epitope mapping, fine specificity analysis, serum of subject P209 [2]: 0; Epitope mapping, fine specificity analysis, serum of subject P210 [2]: 0"
10 (EISEVKMDAE; PEPTIDE (1)..(10) Abeta -7-3 or APP 770(E665-E674); listed as Homo sapiens) [compound 10],0.060,0.056,0.064,0.053,0,0,0,0,0,0,0,0,0,0,0,0,0,0,0,0,"Epitope mapping, fine specificity analysis, serum of subject P208 [2]: 0; Epitope mapping, fine specificity analysis, serum of subject P209 [2]: 0; Epitope mapping, fine specificity analysis, serum of subject P210 [2]: 0"
11 (ISEVKMDAEF; PEPTIDE (1)..(10) Abeta -6-4 or APP 770(I666-F675); listed as Homo sapiens) [compound 11],0.055,0.058,0.063,0.062,0,0,0,0,0,0,0,0,0,0,0,0,0,0,0,0,"Epitope mapping, fine specificity analysis, serum of subject P208 [2]: 0; Epitope mapping, fine specificity analysis, serum of subject P209 [2]: 0; Epitope mapping, fine specificity analysis, serum of subject P210 [2]: 0"
12 (SEVKMDAEFR; PEPTIDE (1)..(10) Abeta -5-5 or APP 770(S667-R676); listed as Homo sapiens) [compound 12],0.056,0.053,0.054,0.050,10,0,0,0,0,0,0,0,0,0,0,0,0,0,0,0,"Epitope mapping, fine specificity analysis, serum of subject P208 [2]: 0; Epitope mapping, fine specificity analysis, serum of subject P209 [2]: 0; Epitope mapping, fine specificity analysis, serum of subject P210 [2]: 0"
13 (EVKMDAEFRH; PROPEP (1)..(10) Abeta -4-6 or APP 770(E668-H677); listed as Homo sapiens) [compound 13],0.046,0.047,0.054,0.047,1,0,0,0,0,0,0,0,0,58,0,0,0,0,0,1,"Epitope mapping, fine specificity analysis, serum of subject P208 [2]: 0; Epitope mapping, fine specificity analysis, serum of subject P209 [2]: 0; Epitope mapping, fine specificity analysis, serum of subject P210 [2]: 0"
14 (VKMDAEFRHD; PEPTIDE (1)..(10) Abeta -3-7 or APP 770(V669-D678); listed as Homo sapiens) [compound 14],0.068,0.053,0.061,0.054,31,0,0,0,0,0,0,0,0,0,0,0,1,0,0,0,"Epitope mapping, fine specificity analysis, serum of subject P208 [2]: 0; Epitope mapping, fine specificity analysis, serum of subject P209 [2]: 0; Epitope mapping, fine specificity analysis, serum of subject P210 [2]: 13"
